Laboratory results published in US11242334B2, “Heterocyclic compounds as kinase inhibitors, compositions comprising the heterocyclic compound, and methods of use thereof” (JS INNOPHARM (SHANGHAI) LTD, priority 2017, dated 2022).

Columns and labels:
human ERK2 = target: T1, human ERK2 (Homo sapiens, UniProt P28482); test: LanthaScreen TR-FRET enzymatic assay, ERK2; settings: IC50 values of ERK2 biochemical activity; 5 μM ATP, 400 nM ATF2-GFP substrate
T1 construct: recombinantly expressed as GST-tagged full-length protein purified from E. coli; GST; purchased Invitrogen PV3311; host or cells: E. coli
In short: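 IC50 values were fitted from percent of DMSO control using a 520/495 nm TR-FRET ratio with terbium anti-pATF2 (pThr71), read after an EDTA stop. The kinase reaction lasted one hour at room temperature, following 15-min compound pre-treatment. It contained 5 μM ATP, 400 nM ATF2-GFP substrate and 20 ng/ml in vitro-activated GST-ERK2.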

Colo205 cell line = test: Colo205 cell proliferation assay (MTT assay, WST-8 readout); type: cell-based; settings: Homo sapiens; IC50 values of growth inhibition in Colo 205 cells; 72 hours
In short: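 Growth-inhibition IC50 was derived from WST-8 absorbance at 450 nm (2 h development) after 72 h compound exposure at 37° C. Exposure used final 50 μM–0.005 μM compound in 0.5% DMSO. Colo205 cells had been plated at 5,000/well in RPMI-1640 plus 10% FBS and allowed 24 h to attach.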

T1 sequence (P28482 whole entry): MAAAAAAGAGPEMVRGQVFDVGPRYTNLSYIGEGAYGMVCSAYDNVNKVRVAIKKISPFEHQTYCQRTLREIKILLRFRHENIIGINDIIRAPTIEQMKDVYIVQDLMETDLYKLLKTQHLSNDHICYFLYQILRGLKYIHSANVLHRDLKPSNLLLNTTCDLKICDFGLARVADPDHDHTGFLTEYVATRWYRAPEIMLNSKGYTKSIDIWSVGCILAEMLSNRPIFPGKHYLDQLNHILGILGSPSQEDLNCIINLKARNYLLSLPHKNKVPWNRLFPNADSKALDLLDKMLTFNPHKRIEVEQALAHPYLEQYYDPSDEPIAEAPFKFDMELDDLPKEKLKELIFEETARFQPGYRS

IC50 (human ERK2) [nM]	IC50 (Colo205 cell line) [nM]	SMILES
< 10	500 to 1000	Cn1cc(-c2n[nH]c3ncc(-c4ccn([C@H](CO)c5cc(F)cc(Br)c5)c(=O)c4)cc23)cn1 [Example 106, (S)-1-(1-(3-bromo-5-fluorophenyl)-2-hydroxyethyl)-4-(3-(1-methyl-1H-pyrazol-4-yl)-1H-pyrazolo[3,4-b]pyridin-5-yl)pyridin-2(1H)-one]
< 10	1000 to 5000	Cn1cc(-c2n[nH]c3ncc(-c4ccn([C@H](CO)c5ccc(F)c(Cl)c5)c(=O)c4)cc23)cn1 [Example 108, (S)-1-(1-(3-chloro-4-fluorophenyl)-2-hydroxyethyl)-4-(3-(1-methyl-1H-pyrazol-4-yl)-1H-pyrazolo[3,4-b]pyridin-5-yl)pyridin-2(1H)-one]
< 10	> 5000	O=c1cc(-c2ccc3[nH]nc(-c4cnn(CCO)c4)c3c2)ccn1[C@H](CO)c1ccc(F)c(Cl)c1 [Example 109, (S)-1-(1-(3-chloro-4-fluorophenyl)-2-hydroxyethyl)-4-(3-(1-(2-hydroxyethyl)-1H-pyrazol-4-yl)-1H-indazol-5-yl)pyridin-2(1H)-one]
< 10	≤ 500	O=c1cc(-c2ccc3[nH]nc(-c4ccc(F)cc4)c3c2)ccn1[C@H](CO)c1cc(F)cc(Br)c1 [Example 111, (S)-1-(1-(3-bromo-5-fluorophenyl)-2-hydroxyethyl)-4-(3-(4-fluorophenyl)-1H-indazol-5-yl)pyridin-2(1H)-one]
< 10	≤ 500	Cn1cc2cc(-c3n[nH]c4ccc(-c5ccn([C@H](CO)c6cc(F)cc(Br)c6)c(=O)c5)cc34)ccc2n1 [Example 113, (S)-1-(1-(3-bromo-5-fluorophenyl)-2-hydroxyethyl)-4-(2′-methyl-1H,2′H-[3,5′-biindazol]-5-yl)pyridin-2(1H)-one]
< 10	≤ 500	O=c1cc(-c2ccc3[nH]nc(-c4ccc5ncsc5c4)c3c2)ccn1[C@H](CO)c1cc(F)cc(Br)c1 [Example 114, (S)-4-(3-(benzo[d]thiazol-6-yl)-1H-indazol-5-yl)-1-(1-(3-bromo-5-fluorophenyl)-2-hydroxyethyl)pyridin-2(1H)-one]
< 10	1000 to 5000	COc1ccc(-c2n[nH]c3ccc(-c4ccn(Cc5ccnc(C(F)(F)F)c5)c(=O)c4)cc23)cn1 [Example 116, 4-(3-(6-methoxypyridin-3-yl)-1H-indazol-5-yl)-1-((2-(trifluoromethyl)pyridin-4-yl)methyl)pyridin-2(1H)-one]
< 10	1000 to 5000	O=c1cc(-c2ccc3[nH]nc(-c4ccc(F)cc4)c3c2)ccn1Cc1ccnc(C(F)(F)F)c1 [Example 117, 4-(3-(4-fluorophenyl)-1H-indazol-5-yl)-1-((2-(trifluoromethyl)pyridin-4-yl)methyl)pyridin-2(1H)-one]
< 10	≤ 500	CCOc1cc(-c2n[nH]c3ccc(-c4ccn([C@H](CO)c5cc(F)cc(Br)c5)c(=O)c4)cc23)ccn1 [Example 119, (S)-1-(1-(3-bromo-5-fluorophenyl)-2-hydroxyethyl)-4-(3-(2-ethoxypyridin-4-yl)-1H-indazol-5-yl)pyridin-2(1H)-one]
< 10	1000 to 5000	Cn1cc(-c2n[nH]c3ccc(-c4ccn([C@H](CO)c5cc(F)cc(Br)c5)c(=O)c4)cc23)ccc1=O [Example 120, (S)-1-(1-(3-bromo-5-fluorophenyl)-2-hydroxyethyl)-4-(3-(1-methyl-6-oxo-1,6-dihydropyridin-3-yl)-1H-indazol-5-yl)pyridin-2(1H)-one]
< 10	1000 to 5000	COc1ccc(-c2n[nH]c3ccc(-c4ccn([C@H](CO)c5cc(F)cc(Br)c5)c(=O)c4)nc23)cn1 [Example 122, (S)-1-(1-(3-bromo-5-fluorophenyl)-2-hydroxyethyl)-4-(3-(6-methoxypyridin-3-yl)-1H-pyrazolo[4,3-b]pyridin-5-yl)pyridin-2(1H)-one]
< 10	1000 to 5000	CC(c1cc(F)cc(Br)c1)n1ccc(-c2ccc3[nH]nc([C@H]4CC[C@H](O)CC4)c3c2)cc1=O (stereo partly drawn) [Example 140, 1-(1-(3-bromo-5-fluorophenyl)ethyl)-4-(3-((1r,4r)-4-hydroxycyclohexyl)-1H-indazol-5-yl)pyridin-2(1H)-one]
< 10	≤ 500	Cc1cc(-c2n[nH]c3ccc(-c4ccn(C(C)c5ccnc(C(F)(F)F)c5)c(=O)c4)cc23)ccn1 (stereo not drawn) [Example 142, 4-(3-(2-methylpyridin-4-yl)-1H-indazol-5-yl)-1-(1-(2-(trifluoromethyl)pyridin-4-yl)ethyl)pyridin-2(1H)-one]

More lines, now with the values behind:

SMILES	IC50 (human ERK2) [nM]	IC50 (Colo205 cell line) [nM]
Cc1cc(-c2n[nH]c3ncc(-c4ccn([C@H](CO)c5ccc(F)c(Cl)c5)c(=O)c4)cc23)ccn1 [Example 101, (S)-1-(1-(3-chloro-4-fluorophenyl)-2-hydroxyethyl)-4-(3-(2-methylpyridin-4-yl)-1H-pyrazolo[3,4-b]pyridin-5-yl)pyridin-2(1H)-one]	< 10	≤ 500
CCOc1ccc(-c2n[nH]c3ccc(-c4ccn([C@H](CO)c5cc(F)cc(Br)c5)c(=O)c4)cc23)cn1 [Example 102, (S)-1-(1-(3-bromo-5-fluorophenyl)-2-hydroxyethyl)-4-(3-(6-ethoxypyridin-3-yl)-1H-indazol-5-yl)pyridin-2(1H)-one]	< 10	≤ 500
COc1ccc(-c2n[nH]c3ccc(-c4ccn([C@H](CO)c5cc(F)cc(Br)c5)c(=O)c4)cc23)cn1 [Example 103, (S)-1-(1-(3-bromo-5-fluorophenyl)-2-hydroxyethyl)-4-(3-(6-methoxypyridin-3-yl)-1H-indazol-5-yl)pyridin-2(1H)-one]	< 10	≤ 500
Cc1cc(-c2n[nH]c3ncc(-c4ccn(Cc5ccnc(C(F)(F)F)c5)c(=O)c4)cc23)ccn1 [Example 104, 4-(3-(2-methylpyridin-4-yl)-1H-pyrazolo[3,4-b]pyridin-5-yl)-1-((2-(trifluoromethyl)pyridin-4-yl)methyl)pyridin-2(1H)-one]	10 to 50	500 to 1000
Cc1cc(-c2n[nH]c3ncc(-c4ccn(C(C)c5cc(F)cc(Br)c5)c(=O)c4)cc23)ccn1 (stereo not drawn) [Example 105, 1-(1-(3-bromo-5-fluorophenyl)ethyl)-4-(3-(2-methylpyridin-4-yl)-1H-pyrazolo[3,4-b]pyridin-5-yl)pyridin-2(1H)-one]	< 10	500 to 1000
CNCC(c1ccc(F)c(Cl)c1)n1ccc(-c2ccc3[nH]nc(-c4ccnc(C)c4)c3c2)cc1=O (stereo not drawn) [Example 107, 1-(1-(3-chloro-4-fluorophenyl)-2-(methylamino)ethyl)-4-(3-(2-methylpyridin-4-yl)-1H-indazol-5-yl)pyridin-2(1H)-one]	< 10	≤ 500
CCOc1ccc(-c2n[nH]c3ncc(-c4ccn([C@H](CO)c5cc(F)cc(Br)c5)c(=O)c4)cc23)cn1 [Example 110, (S)-1-(1-(3-bromo-5-fluorophenyl)-2-hydroxyethyl)-4-(3-(6-ethoxypyridin-3-yl)-1H-pyrazolo[3,4-b]pyridin-5-yl)pyridin-2(1H)-one]	< 10	500 to 1000
Cc1cc(-c2n[nH]c3ccc(-c4ccn(Cc5ccnc(C(F)(F)F)c5)c(=O)c4)nc23)ccn1 [Example 112, 4-(3-(2-methylpyridin-4-yl)-1H-pyrazolo[4,3-b]pyridin-5-yl)-1-((2-(trifluoromethyl)pyridin-4-yl)methyl)pyridin-2(1H)-one]	< 10	1000 to 5000
COc1cc(-c2n[nH]c3ccc(-c4ccn([C@H](CO)c5cc(F)cc(Br)c5)c(=O)c4)cc23)ccn1 [Example 115, (S)-1-(1-(3-bromo-5-fluorophenyl)-2-hydroxyethyl)-4-(3-(2-methoxypyridin-4-yl)-1H-indazol-5-yl)pyridin-2(1H)-one]	< 10	≤ 500
O=c1cc(-c2ccc3[nH]nc(-c4ccc(OC5CC5)nc4)c3c2)ccn1[C@H](CO)c1cc(F)cc(Br)c1 [Example 118, (S)-1-(1-(3-bromo-5-fluorophenyl)-2-hydroxyethyl)-4-(3-(6-cyclopropoxypyridin-3-yl)-1H-indazol-5-yl)pyridin-2(1H)-one]	< 10	≤ 500
Cn1ccc(-c2n[nH]c3ccc(-c4ccn([C@H](CO)c5cc(F)cc(Br)c5)c(=O)c4)cc23)cc1=O [Example 121, (S)-1-(1-(3-bromo-5-fluorophenyl)-2-hydroxyethyl)-4-(3-(1-methyl-2-oxo-1,2-dihydropyridin-4-yl)-1H-indazol-5-yl)pyridin-2(1H)-one]	< 10	1000 to 5000
O=c1cc(-c2ccc3[nH]nc(-c4ccc(F)cn4)c3c2)ccn1Cc1ccnc(C(F)(F)F)c1 [Example 123, 4-(3-(5-fluoropyridin-2-yl)-1H-indazol-5-yl)-1-((2-(trifluoromethyl)pyridin-4-yl)methyl)pyridin-2(1H)-one]	10 to 50	> 5000
COc1ccc(-c2n[nH]c3cnc(-c4ccn([C@H](CO)c5cc(F)cc(Br)c5)c(=O)c4)cc23)cn1 [Example 124, (S)-1-(1-(3-bromo-5-fluorophenyl)-2-hydroxyethyl)-4-(3-(6-methoxypyridin-3-yl)-1H-pyrazolo[3,4-c]pyridin-5-yl)pyridin-2(1H)-one]	< 10	500 to 1000
Cc1cc(-c2n[nH]c3ccc(-c4cc(C)n(Cc5ccnc(C(F)(F)F)c5)c(=O)c4)cc23)ccn1 [Example 143, 6-methyl-4-(3-(2-methylpyridin-4-yl)-1H-indazol-5-yl)-1-((2-(trifluoromethyl)pyridin-4-yl)methyl)pyridin-2(1H)-one]	< 10	500 to 1000
